# Columns and labels:
# AR = AR (Homo sapiens, UniProt P10275); details: cited from earlier work
# [1] = pharmacokinetic study data, subjects with mild and moderate hepatic impairment versus healthy controls; assay type: in vivo, human
# [2] = system: non-castrate hormone-sensitive and bicalutamide-resistant human prostate cancer xenograft models; details: cited from earlier work
# T877A AR mutant = target: T1, T877A AR mutant (Homo sapiens, UniProt P10275, T878A); details: cited from earlier work
# T1 sequence (P10275 1-920 T878A): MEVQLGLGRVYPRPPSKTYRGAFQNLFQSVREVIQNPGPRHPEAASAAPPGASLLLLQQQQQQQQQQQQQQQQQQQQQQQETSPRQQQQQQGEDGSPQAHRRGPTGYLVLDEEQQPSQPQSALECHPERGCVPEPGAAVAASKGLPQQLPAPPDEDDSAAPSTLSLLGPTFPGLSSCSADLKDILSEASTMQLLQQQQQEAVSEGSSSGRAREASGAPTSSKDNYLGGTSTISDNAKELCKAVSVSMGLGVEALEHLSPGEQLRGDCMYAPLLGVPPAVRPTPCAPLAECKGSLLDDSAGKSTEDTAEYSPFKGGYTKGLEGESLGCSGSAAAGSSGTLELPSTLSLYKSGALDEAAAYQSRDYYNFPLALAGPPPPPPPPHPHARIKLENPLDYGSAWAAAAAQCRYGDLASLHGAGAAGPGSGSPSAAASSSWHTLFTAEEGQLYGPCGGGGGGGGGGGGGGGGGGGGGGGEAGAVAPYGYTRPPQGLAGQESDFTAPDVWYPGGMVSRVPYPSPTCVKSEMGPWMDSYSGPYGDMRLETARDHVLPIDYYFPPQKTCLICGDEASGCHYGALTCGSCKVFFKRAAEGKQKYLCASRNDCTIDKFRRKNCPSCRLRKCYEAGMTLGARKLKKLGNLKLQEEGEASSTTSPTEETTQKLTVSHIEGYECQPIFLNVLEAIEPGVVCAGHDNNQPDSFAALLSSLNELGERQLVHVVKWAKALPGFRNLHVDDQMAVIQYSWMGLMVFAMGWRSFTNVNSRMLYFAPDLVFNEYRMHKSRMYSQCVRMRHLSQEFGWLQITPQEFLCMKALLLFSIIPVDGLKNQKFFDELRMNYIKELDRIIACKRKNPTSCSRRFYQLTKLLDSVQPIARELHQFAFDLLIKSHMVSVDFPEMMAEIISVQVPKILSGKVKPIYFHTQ
# Sequence of AR (P10275 whole entry): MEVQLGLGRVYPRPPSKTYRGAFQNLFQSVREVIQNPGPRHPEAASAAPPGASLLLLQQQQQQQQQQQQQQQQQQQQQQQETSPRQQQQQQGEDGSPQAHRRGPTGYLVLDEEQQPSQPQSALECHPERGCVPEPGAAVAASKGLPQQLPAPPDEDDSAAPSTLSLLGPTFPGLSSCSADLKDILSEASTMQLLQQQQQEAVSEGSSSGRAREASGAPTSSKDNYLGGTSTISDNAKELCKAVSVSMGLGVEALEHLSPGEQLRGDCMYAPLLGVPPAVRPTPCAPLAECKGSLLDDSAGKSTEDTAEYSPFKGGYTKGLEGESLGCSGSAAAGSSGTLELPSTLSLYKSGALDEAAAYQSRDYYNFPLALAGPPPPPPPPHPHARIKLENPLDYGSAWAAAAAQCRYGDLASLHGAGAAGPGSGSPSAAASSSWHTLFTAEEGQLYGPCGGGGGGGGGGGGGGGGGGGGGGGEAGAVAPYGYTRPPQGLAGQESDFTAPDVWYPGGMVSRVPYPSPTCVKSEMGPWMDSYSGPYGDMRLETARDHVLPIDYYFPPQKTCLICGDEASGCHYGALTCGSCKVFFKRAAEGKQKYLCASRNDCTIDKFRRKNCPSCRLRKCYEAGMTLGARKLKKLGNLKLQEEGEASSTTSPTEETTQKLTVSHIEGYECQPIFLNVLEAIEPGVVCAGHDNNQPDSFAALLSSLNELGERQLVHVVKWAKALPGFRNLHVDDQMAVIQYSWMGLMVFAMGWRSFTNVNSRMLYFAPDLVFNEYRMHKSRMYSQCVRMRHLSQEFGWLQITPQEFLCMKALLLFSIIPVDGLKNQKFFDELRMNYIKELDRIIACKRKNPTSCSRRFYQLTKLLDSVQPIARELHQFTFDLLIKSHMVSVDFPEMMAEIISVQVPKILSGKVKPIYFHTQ
smiles,measurement,setting,value
"CC(O)c1cc(C(=O)N[C@@H](C)Cn2ccc(-c3ccc(C#N)c(Cl)c3)n2)n[nH]1 (stereo partly drawn) [Darolutamide, N-{(2S)-1-[3-(3-chloro-4-cyanophenyl)-1H-pyrazol-1-yl]propan-2-yl}-5-(1-hydroxyethyl)-1H-pyrazole-3-carboxamide]",binding affinity for AR,AR,high affinity
"CNC(=O)c1ccc(N2C(=S)N(c3cnc(C#N)c(C(F)(F)F)c3)C(=O)C23CCC3)cc1F [apalutamide, 4-[7-(6-cyano-5-trifluoromethylpyridin-3-yl)-8-oxo-6-thioxo-5,7-diazaspiro[3.4]oct-5-yl]-2-fluoro-N-methylbenzamide]",total coefficient of variation (CV) for AUCs (AUClast and AUC∞),[1],≤ 27%
same,total coefficient of variation (CV) for Cmax,[1],≤ 35%
same,tumor regression,[2],partial or complete tumor regression
CC(C)(O)C(=O)Nc1ccc([N+](=O)[O-])c(C(F)(F)F)c1 [hydroxyflutamide],agonist activity,T877A AR mutant,act as AR agonists

# Reference: patent US11723898B2, “Androgen receptor inhibitors for the treatment of non-metastatic castration-resistant prostate cancer in subjects with severe hepatic impairment” (Aragon Pharmaceuticals, Inc., priority 2019, dated 2023)
